# Data taken from patent US5859007A, “CCK or gastrin modulating benzo [b][1,4] diazepines derivatives” (Glaxo Wellcome Inc., priority 1994, dated 1999).
# Test system: isolated guinea pig gallbladder
# Assay: Functional activity in isolated guinea pig gallbladder preparation
# Format: cell-based
# Conditions: expressed as % CCK-induced maximal response; for activation at 1 µM / activation at 30 µM: Cavia porcellus; for activation at 1 µM: read-out: %Contraction (1 × 10^-6 M); for activation at 30 µM: 3 × 10^-5 M test compound, read-out: % Contraction (3 × 10^-5 M)
# Experimental: 3. GUINEA PIG GALL BLADDER ASSAY
# Gallbladders are removed from guinea pigs sacrificed by cervical dislocation. The isolated gallbladders are cleaned of adherent connective tissue and cut into two rings from each animal (2-4 mm in length). The rings are subsequently suspended in organ chambers containing a physiological salt solution (118.4 mM NaCl, 4.7 mM KCl, 1.2 mM MgSO4, 2.5 mM CaCl2, 1.2 mM KH2 […], 25 mM NaHCO3, 11.1 mM dextrose). The bathing solution is maintained at 37° C. and aerated with 95% O2 /5% CO2. Tissues are connected via gold chains and stainless steel mounting wires to isometric force displacement transducers (Grass, Model FT03 D). Responses are then recorded on a polygraph (Grass, Model 7E).
# Rings are gradually stretched (over a 120 min. period) to a basal resting tension of 1 gm which is maintained throughout the experiment. During the basal tension adjustment period, the rings are exposed to acetylcholine (10^-6 M) four times to verify tissue contractility. The tissues are then exposed to a submaximal dose of sulfated CCK-8 (Sigma, 3×10^-9 M). After obtaining a stable response, the tissues are washed out 3 times rapidly and every 5 to 10 minutes for 1 hour to reestablish a stable baseline.
# Compounds are dissolved in dimethylsulfoxide ([…]) followed by a concentration-response curve to sulfated CCK-8 (10^-10 to 10^-6 M) in the presence of the highest dose of the test compound. As a final test, ACH (10 mM) is added to induce maximal contraction. A minimum of three determinations of activity are made for each test compound.
Compound,activation at 1 µM (1 × 10^-6 M test compound) [%],%Contraction (1 × 10^-6 M) (1 × 10^-6 M test compound) [%],activation at 30 µM [%]
"COc1ccc(N(C(=O)CN2C(=O)C(Cc3cccc4ccccc34)C(=O)N(c3ccccc3)c3ccccc32)C(C)C)cc1 (centres unmarked) [Example 34, N-Isopropyl-N-(4-methoxy-phenyl)-2-(3-naphthalen-1-ylmethyl-2,4-dioxo-5-phenyl-2,3,4,5-tetrahydro-benzo[b][1,4]diazepin-1-yl) acetamide]",47,–,–
"COc1ccc(N(C(=O)CN2C(=O)C(C)(Cc3cccc4ccccc34)C(=O)N(c3ccccc3)c3ccccc32)C(C)C)cc1 (centres unmarked) [Example 35, N-Isopropyl-N-(4-methoxy-phenyl)-2-(3-methyl-3-naphthalen-1-ylmethyl-2,4-dioxo-5-phenyl-2,3,4,5-tetrahydro-benzo[b][1,4]diazepin-1-yl) acetamide]",44,–,–
"COc1ccc(N(C(=O)CN2C(=O)C(Cc3ccc4ccccc4c3)C(=O)N(c3ccccc3)c3ccccc32)C(C)C)cc1 (centres unmarked) [Example 36, N-Isopropyl-N-(4-methoxy-phenyl)-2-(3-naphthalen-2-ylmethyl-2,4-dioxo-5-phenyl-2,3,4,5-tetrahydro-benzo[b][1,4]diazepin-1-yl) acetamide]",19,–,–
"COc1ccc(N(C(=O)CN2C(=O)C(Cc3csc4ccccc34)C(=O)N(c3ccccc3)c3ccccc32)C(C)C)cc1 (centres unmarked) [Example 37, 2-(3-Benzo[b]thiophen-3-ylmethyl-2,4-dioxo-5-phenyl-2,3,4,5-tetrahydro-benzo[b][1,4]diazepin-1-yl)-N-isopropyl-N-(4-methoxy-phenyl) acetamide]",46,–,–
"COc1ccc(N(C(=O)CN2C(=O)C(C)(Cc3ccc4ccccc4c3)C(=O)N(c3ccccc3)c3ccccc32)C(C)C)cc1 (centres unmarked) [Example 38, N-Isopropyl-N-(4-methoxy-phenyl)-2-(3-methyl-3-naphthalen-2-ylmethyl-2,4-dioxo-5-phenyl-2,3,4,5-tetrahydro-benzo[b][1,4]diazepin-1-yl) acetamide]",30,–,–
"COc1ccc(N(C(=O)CN2C(=O)C(CC(=O)Nc3ccccc3)C(=O)N(c3ccccc3)c3ccccc32)C(C)C)cc1 (centres unmarked) [Example 39, 2-(2,4-dioxo-5-phenyl-3-phenylcarbamoylmethyl-2,3,4,5-tetrahydro-benzo[b][1,4]diazepin-1-yl)-N-isopropyl-N-(4-methoxy-phenyl)-acetamide]",–,57,–
"COc1ccc(N(C(=O)CN2C(=O)C(C)(Cc3csc4ccccc34)C(=O)N(c3ccccc3)c3ccccc32)C(C)C)cc1 (centres unmarked) [Example 40, 2-(3-Benzo[b]thiophen-3-ylmethyl-3-methyl-2,4-dioxo-5-phenyl-2,3,4,5-tetrahydro-benzo[b][1,4]diazepin-1-yl)-N-isopropyl-N-(4-methoxy-phenyl) acetamide]",10,–,–
COc1ccc(N(C(=O)CN2C(=O)C(C)(CC(=O)Nc3ccccc3)C(=O)N(c3ccc(Cl)cc3)c3ccccc32)C(C)C)cc1 (centres unmarked) [Example 41],40,–,–
"COc1ccc(N(C(=O)CN2C(=O)C(Cc3nn(Cc4ccccc4)c4ccccc34)(OC)C(=O)N(c3ccccc3)c3ccccc32)C(C)C)cc1 (centres unmarked) [Example 42, 2-[3-(1-Benzyl-1H-Indazol-3-ylmethyl)-3-methoxy-2,4-dioxo-5-phenyl-2,3,4,5-tetrahydro-benzo[b][1,4]diazepin-1-yl]-N-isopropyl-N-(4-methoxy-phenyl) acetamide]",16,–,–
"COc1ccc(N(C(=O)CN2C(=O)C(Cc3n[nH]c4ccccc34)(OC)C(=O)N(c3ccccc3)c3ccccc32)C(C)C)cc1 (centres unmarked) [Example 43, 2-[3-(1H-Indazol-3-ylmethyl)-3-methoxy-2,4-dioxo-5-phenyl-2,3,4,5-tetrahydro-benzo[b][1,4]diazepin-1-yl]-N-isopropyl-N-(4-methoxy-phenyl) acetamide]",–,–,61
"COc1ccc(N(C(=O)CN2C(=O)C(Cc3nn(C)c4ccccc34)C(=O)N(c3ccccc3)c3ccccc32)C(C)C)cc1 (centres unmarked) [Example 44, N-Isopropyl-N-(4-methoxy-phenyl)-2-[3-(1-methyl-1H-indazol-3-ylmethyl)-2,4-dioxo-5-phenyl-2,3,4,5-tetrahydro-benzo[b][1,4]diazepin-1-yl]acetamide]",57,–,83
"COc1ccc(N(C(=O)CN2C(=O)C(C)(Cc3nn(C)c4ccccc34)C(=O)N(c3ccccc3)c3ccccc32)C(C)C)cc1 (centres unmarked) [Example 45, N-Isopropyl-N-(4-methoxy-phenyl)-2-[3-(1-methyl-1H-indazol-3-ylmethyl)-3-methyl-2,4-dioxo-5-phenyl-2,3,4,5-tetrahydro-benzo[b][1,4]diazepin-1-yl]acetamide]",57,–,–
"COc1ccc(N(C(=O)CN2C(=O)C(Cc3nccn3-c3ccccc3)C(=O)N(c3ccccc3)c3ccccc32)C(C)C)cc1 (centres unmarked) [Example 46, 2-(2,4-Dioxo-5-phenyl-3-(1-phenyl-imidazo-2-yl)methyl-2,3,4,5-tetrahydro-benzo[b][1,4]diazepin-1-yl)-N-isopropyl-N-(4-methoxy)-phenyl acetamide]",6,–,6
"COc1ccc(N(C(=O)CN2C(=O)C(Cc3noc4ccccc34)C(=O)N(c3ccccc3)c3ccccc32)C(C)C)cc1 (centres unmarked) [Example 47, 2-(3-Benzo[d]isoxazol-3-ylmethyl-2,4-dioxo-5-phenyl-2,3,4,5-tetrahydro-benzo[b][1,4]diazepin-1-yl)-N-isopropyl-N-(4-methoxy-phenyl) acetamide]",92,–,–
"COc1ccc(N(C(=O)CN2C(=O)C(Cc3noc4ncccc34)C(=O)N(c3ccccc3)c3ccccc32)C(C)C)cc1 (centres unmarked) [Example 48, N-Isopropyl-2-(3-isoxazolo[5,4-b]pyridin-3-ylmethyl-2,4-dioxo-5-phenyl-2,3,4,5-tetrahydro-benzo[b][1,4]diazepin-1-yl)-N-(4-methoxy-phenyl) acetamide]",–,–,75
"COc1ccc(N(C(=O)CN2C(=O)C(Cc3n[nH]c4ncccc34)C(=O)N(c3ccccc3)c3ccccc32)C(C)C)cc1 (centres unmarked) [Example 50, 2-[2,4-Dioxo-5-phenyl-3-(1H-pyrazolo[3,4-b]pyridin-3-ylmethyl)-2,3,4,5-tetrahydro-benzo[b][1,4]diazepin-1-yl]-N-isopropyl-N-(4-methoxy-phenyl)-acetamide]",83,–,94
"COc1ccc(N(C(=O)CN2C(=O)C(Cc3n[nH]c4c3CCCC4)C(=O)N(c3ccccc3)c3ccccc32)C(C)C)cc1 (centres unmarked) [Example 51, 2-[2,4-Dioxo-5-phenyl-3-(4,5,6,7-tetrahydro-1H-indazol-3-ylmethyl)-2,3,4,5-tetrahydro-benzo[b][1,4]diazepin-1-yl]-N-isopropyl-N-(4-methoxy-phenyl)-acetamide]",82,–,83
"CC(C)N(C(=O)CN1C(=O)C(Cc2n[nH]c3ccccc23)C(=O)N(c2ccccc2)c2ccccc21)c1ccc(C(F)(F)F)cc1 (centres unmarked) [Example 52, 2-[3-(1H-Indazol-3-ylmethyl)-2,4-dioxo-5-phenyl-2,3,4,5-tetrahydro-benzo[b][1,4]diazepin-1-yl]-N-isopropyl-N-(4-trifluoromethyl-phenyl)-acetamide]",70,–,96
"COc1ccc(N(C(=O)CN2C(=O)C(Cc3n[nH]c4ccccc34)(OC)C(=O)N(c3cccnc3)c3ccccc32)C(C)C)cc1 (centres unmarked) [Example 53, 2-[3-(1H-Indazol-3-ylmethyl)-3-methoxy-2,4-dioxo-5-pyridin-3-yl-2,3,4,5-tetrahydro-benzo[b][1,4]diazepin-1-yl]-N-isopropyl-N-(4-methoxy-phenyl)-acetamide]",96,–,103
"COc1ccc(N(C(=O)CN2C(=O)C(Cc3cc(C)nn3Cc3ccccc3)C(=O)N(c3ccccc3)c3ccccc32)C(C)C)cc1 (centres unmarked) [Example 54, 2-[3-(2-Benzyl-5-methyl-2H-pyrazol-3ylmethyl)-2,4-dioxo-5-phenyl-2,3,4,5-tetrahydro-benzo[b][1,4]diazepin-1-yl]-N-isopropyl-N-(4-methoxy-phenyl)-acetamide]",63,–,43
"COc1ccc(N(C(=O)CN2C(=O)C(Cc3cc(C)n[nH]3)C(=O)N(c3ccccc3)c3ccccc32)C(C)C)cc1 (centres unmarked) [Example 55, N-Isopropyl-N-(4-methoxy-phenyl)-2-[3-(5-methyl-2H-pyrazol-3ylmethyl)-2,4-dioxo-5-phenyl-2,3,4,5-tetrahydro-benzo[b][1,4]diazepin-1-yl]-acetamide]",21,–,–
"COc1ccc(N(C(=O)CN2C(=O)C(Cn3cnc4ccccc43)C(=O)N(c3ccccc3)c3ccccc32)C(C)C)cc1 (centres unmarked) [Example 56, 2-(3-Benzoimidazol-1-ylmethyl-2,4-dioxo-5-phenyl-2,3,4,5-tetrahydro-benzo[b][1,4]diazepin-1-yl]-N-isopropyl-N-(4-methoxy-phenyl)-acetamide]",90,–,98
"CC(C)N(C(=O)CN1C(=O)C(Cc2n[nH]c3ccccc23)C(=O)N(c2ccccc2)c2ccccc21)c1ccc(F)cc1 (centres unmarked) [Example 57, N-(4-Fluoro-phenyl)-2-[3-(1H-indazol-3-ylmethyl)-2,4-dioxo-5-phenyl-2,3,4,5-tetrahydro-benzo[b][1,4]diazepin-1-yl]-N-isopropyl-acetamide]",99,–,134
